# “Also recorded” adds a separate entry of the source.
# Legend:
# [1] = biological target: T1, NTR1 (Homo sapiens, UniProt P30989); assay: NTR1 HCS primary assay; format: cell-based; conditions: for loss in potency compared to 32: NTR1 HCS EC50 relative to compound 32
# [2] = tested on: Fa2N-4 Immortalized Human Hepatocytes; assay: Toxicity towards hepatocytes; format: cell-based; conditions: LC50 towards human hepatocytes versus NTR1 potency
# [3] = tested on: adrenergic receptors (α1a, α1B, α1D, α2A); assay: Panlabs/Ricerca lead profiling panel; format: binding; conditions: at 10 μM, range across α1a
# [4] = biological target: T1, NTR1; assay: NTR1 Ca2+ Flux assay; format: cell-based
# [5] = tested on: GPR55, APJ, k-opiod, CCR6, and CXCR6; assay: Functional high content or β-arrestin based GPCR screens; format: cell-based; conditions: result in words
# [6] = NTR1 HCS EC50 relative to compound 5
# T1 sequence (P30989 whole entry): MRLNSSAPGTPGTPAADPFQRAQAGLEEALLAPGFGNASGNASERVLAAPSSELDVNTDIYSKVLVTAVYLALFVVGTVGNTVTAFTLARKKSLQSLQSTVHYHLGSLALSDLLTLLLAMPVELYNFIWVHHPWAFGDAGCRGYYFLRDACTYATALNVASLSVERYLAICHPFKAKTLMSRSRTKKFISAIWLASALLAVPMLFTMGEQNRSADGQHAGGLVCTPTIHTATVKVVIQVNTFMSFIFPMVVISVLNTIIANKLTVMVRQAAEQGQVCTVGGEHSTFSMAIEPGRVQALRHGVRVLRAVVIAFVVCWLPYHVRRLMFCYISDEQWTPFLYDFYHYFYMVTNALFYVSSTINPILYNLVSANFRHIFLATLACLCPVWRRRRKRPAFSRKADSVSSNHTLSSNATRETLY
smiles,measurement,setting,value
COc1ccccc1N1CCN(c2nc(C3CCC3)nc3ccccc23)CC1 [Compound 39],loss of potency compared to 5,[1]; [6],4-6 fold
COc1ccccc1N1CCN(c2nc(C3CCC3)nc3cc4c(cc23)OCO4)CC1 [Compound 40],loss of potency compared to 5,[1]; [6],over 6 fold
CCOc1cc2c(N3CCN(c4ccccc4[N+](=O)[O-])CC3)nc(-c3ccccc3)nc2cc1OC [Compound 19],loss of potency compared to 5,[1]; [6],> 6 fold
COc1cc2nc(C3CCC3)nc(N3CCN(c4ccccn4)CC3)c2cc1OC [Compound 18],loss of potency compared to 5,[1]; [6],> 6 fold
"COc1cc2nc(C3CC3)nc(N3CCN(c4ccccc4OC)CC3)c2cc1OC [Compound 32, 2-cyclopropyl-6,7-dimethoxy-4-(4-(2-methoxyphenyl)-piperazin-1-yl)quinazoline]",window for toxicity,[2],> 15 fold
same,binding,[3],63-100%
same,response in Ca2+ mobilization / flux assay,[4]; result in words,no significant response; also recorded: no significant activity
same,cross reactivity,[5],no cross reactivity
same,improvement in activity over 5,[1]; [6],3 fold
COc1ccc2c(N3CCN(c4ccccc4OC)CC3)nc(C3CCC3)nc2c1 [Compound 38],loss of potency compared to 5,[1]; [6],4-6 fold
COc1cc2nc(C3CC3)nc(N3CCN(c4ccccc4Cl)CC3)c2cc1OC [Compound 43],loss in potency compared to 32,[1],3-10 fold
"COc1cccc(OC)c1-c1cc(C(=O)N[C@@H](CC(C)C)C(=O)O)nn1-c1ccnc2cc(Cl)ccc12 [Compound 2, reference compound]",EC50,[4]; NTR1 Ca2+ flux assay,< 156 nM
CCOc1ccccc1N1CCN(c2nc(C3CC3)nc3cc(OC)c(OC)cc23)CC1 [Compound 42],loss in potency compared to 32,[1],3-10 fold

# From publication PMC3940307 (ACS medicinal chemistry letters, 2013)
